Source: the Deep4Chem optical property database
Several values for one entry are separate records, joined by “and”; a condition that tells them apart may be missing. Equal entries are not always repeated. One block for each compound: values may come before it.

Assay: solvent given as SMILES

SMILES: CCCCCCCCCCC1(CCCCCCCCCC)c2cc(-c3nc4ccccc4s3)ccc2-c2ccc(N3C(=O)c4ccc5c6ccc7c8c(ccc(c9ccc(c4c59)C3=O)c86)C(=O)N(c3ccc4c(c3)C(CCCCCCCCCC)(CCCCCCCCCC)c3cc(-c5nc6ccccc6s5)ccc3-4)C7=O)cc21
- emission maximum (in Cc1ccccc1): 536 nm
- emission maximum (in ClCCl): 533 nm

SMILES: COc1ccc(N(c2ccc(OC)cc2)c2ccc3ccc4c(B(c5c(C)cc(C)cc5C)c5c(C)cc(C)cc5C)ccc5ccc2c3c54)cc1
- emission maximum (in C1CCOC1): 626 nm
- emission maximum (in CC(C)=O): 658 nm
- emission maximum (in CCCCCC): 534 nm
- emission maximum (in Cc1ccccc1): 575 nm
- emission maximum (in ClC(Cl)Cl): 601 nm
- emission maximum (in ClCCl): 633 nm

SMILES: CCCCCCn1c2c(c3cc(-c4ccc5ccc6cccc7ccc4c5c67)ccc31)-c1c(c3cc(-c4ccc5ccc6cccc7ccc4c5c67)ccc3n1CCCCCC)-c1c(c3cc(-c4ccc5ccc6cccc7ccc4c5c67)ccc3n1CCCCCC)-c1c-2c2cc(-c3ccc4ccc5cccc6ccc3c4c56)ccc2n1CCCCCC
- emission maximum (in ClCCl): 382 nm

SMILES: CCCCc1ccc(-n2c3c4ccc(C(F)(F)F)cc4nc(-c4ccc(C#N)cc4)c3c3c2c2c(-c4ccc(C#N)cc4)nc4cc(C(F)(F)F)ccc4c2n3-c2ccc(CCCC)cc2)cc1
- emission maximum (in ClC(Cl)Cl): 499 nm

SMILES: CCn1c(-c2ccc(N(c3ccccc3)c3cccc4ccccc34)cc2)c(-c2ccc3ccccc3c2)c(-c2ccc3ccccc3c2)c1-c1ccc(N(c2ccccc2)c2cccc3ccccc23)cc1
- emission maximum (in CCOC(C)=O): 434 nm

SMILES: COC(=O)C(Cc1ccc2oc(-c3ccc(-n4c5ccccc5c5ccccc54)cc3)nc2c1)NC(=O)OC(C)(C)C (stereo not drawn)
- emission maximum (in C1CCCCC1): 362 nm
- emission maximum (in C1CCOC1): 429 nm
- emission maximum (in C1COCCO1): 400 nm
- emission maximum (in CC1CCCO1): 404.01 nm
- emission maximum (in CC#N): 447.01 nm
- emission maximum (in CC(C)(C)O): 421 nm
- emission maximum (in CC(C)=O): 432.99 nm
- emission maximum (in CC(C)CC(C)(C)C): 361.01 nm
- emission maximum (in CC(C)O): 431 nm
- emission maximum (in CC(O)CO): 455 nm
- emission maximum (in CCCCCCCO): 421.99 nm
- emission maximum (in CCCCCCO): 424 nm
- emission maximum (in CCCCCO): 409 nm
- emission maximum (in CCCCO): 430 nm
- emission maximum (in CCO): 445 nm
- emission maximum (in CCOC(C)=O): 409 nm
- emission maximum (in CCOCC): 402.32 nm
- emission maximum (in CN(C)C=O): 438.02 nm
- emission maximum (in CO): 465.98 nm
- emission maximum (in CS(C)=O): 445.99 nm
- emission maximum (in Cc1ccccc1): 391.01 nm
- emission maximum (in OCCO): 470.01 nm

SMILES: CC(=O)c1nc(-c2ccc(N(c3ccccc3)c3ccccc3)cc2)oc1C
- emission maximum (in CC#N): 452 nm
- emission maximum (in CCCCCC): 385 nm
- emission maximum (in CCO): 468 nm
- emission maximum (in CCOC(C)=O): 419 nm
- emission maximum (in CCOCC): 408 nm
- emission maximum (in ClCCl): 448 nm

SMILES: N#CC(C#N)=C(c1ccc(-n2ccc3ccccc32)cc1)c1ccc(-n2ccc3ccccc32)cc1
- emission maximum (in Cc1ccccc1): 536 nm

SMILES: c1ccc(-c2nc(-c3ccccc3)nc(-c3ccc(-n4c5ccccc5c5ccc6c(c7ccccc7n6-c6ccccc6)c54)cc3)n2)cc1
- emission maximum (in Cc1ccccc1): 466.56 nm and 461 nm
- emission maximum (in O=P(c1ccccc1)(c1ccccc1)c1ccc2oc3ccc(P(=O)(c4ccccc4)c4ccccc4)cc3c2c1): 479 nm

SMILES: O=C([O-])c1ccccc1C1=c2cc3c4c(c2Oc2c1cc1c5c2CCCN5CCC1)CCC[N+]=4CCC3
- emission maximum (in CC#N): 603 nm
- emission maximum (in CCO): 593 nm
- emission maximum (in CN(C)C=O): 608 nm
- emission maximum (in O): 604 nm

SMILES: O=c1cc2cc(O)c3cc(O)cc4ccc(o1)c2c43
- emission maximum (in CC1CCCO1): 483 nm

SMILES: CCCC1=Cc2nc1ccc1[nH]c(cc1CCO)c1nc(ccc3[nH]c2cc3CCC)C(CCO)=C1
- emission maximum (in Cc1ccccc1): 642 nm

SMILES: Cc1ccccc1C1=C2C=CC(=[N+](C)C)C=[C]2[Ge]([CH3])([CH3])[c]2cc(N(C)C)ccc21
- emission maximum (in O): 649 nm

SMILES: Cc1csc2[n+]1[B-](F)(F)n1c(c3cccc4cccc1c43)=N2
- emission maximum (in C1CCOC1): 500 nm
- emission maximum (in CC#N): 499 nm
- emission maximum (in CCCCCC): 488 nm
- emission maximum (in Cc1ccccc1): 502 nm
- emission maximum (in ClCCl): 527 nm

SMILES: c1ccc2c(c1)Oc1ccccc1N2c1ccc2c(c1)c1cc(N3c4ccccc4Oc4ccccc43)ccc1c1nc3ccccc3nc21
- emission maximum (in Cc1ccccc1): 614 nm

SMILES: C(=C\c1nc2c3ccccc3c3ccccc3c2o1)/c1ccccc1
- emission maximum (in CC#N): 434 nm

SMILES: [C-]#[N+]c1ccc(-c2ccc(NC)cc2)cc1
- emission maximum (in C1CCCCC1): 368 nm
- emission maximum (in C1CCOC1): 406 nm
- emission maximum (in C1COCCO1): 395 nm
- emission maximum (in CC#N): 421 nm
- emission maximum (in CC(C)=O): 427 nm
- emission maximum (in CCCCCC): 366 nm
- emission maximum (in CCOC(C)=O): 403 nm
- emission maximum (in CN(C)C=O): 435 nm
- emission maximum (in CO): 422 nm
- emission maximum (in CS(C)=O): 436 nm
- emission maximum (in Cc1ccccc1): 388 nm
- emission maximum (in ClC(Cl)Cl): 400 nm
- emission maximum (in ClCCl): 405 nm
- emission maximum (in O): 458 nm
- emission maximum (in c1ccncc1): 421 nm

SMILES: Cc1oc2c(Cl)cc3c(C)cc(=O)oc3c2c1C
- emission maximum (in C1CCCCC1): 403 nm
- emission maximum (in C1COCCO1): 416 nm
- emission maximum (in CC#N): 431 nm
- emission maximum (in CCO): 440 nm
- emission maximum (in OCC(F)(F)F): 469 nm

SMILES: CCC1(CC)c2cc(B(c3c(C)cc(C)cc3C)c3c(C)cc(C)cc3C)ccc2-c2ccc(N(c3ccccc3)c3ccccc3)cc21
- emission maximum (in C1CCOC1): 482 nm
- emission maximum (in CC#N): 531 nm
- emission maximum (in CC(C)=O): 499 nm
- emission maximum (in CCCCCC): 423 nm
- emission maximum (in CN(C)C=O): 532 nm
- emission maximum (in Cc1ccccc1): 448 nm
- emission maximum (in ClC(Cl)Cl): 461 nm

SMILES: CN(C)c1ccccc1
- emission maximum (in C1CCCCC1): 339.9 nm

SMILES: COC(=O)C1=C(C(=O)OC)C2(c3ccccc3-c3c(C(=O)OC)cccc32)[C@@H](c2ccc(Cl)cc2)C=C2c3cc(OC)c(OC)cc3CCN21 (stereo partly drawn)
- emission maximum (in ClCCl): 439 nm

SMILES: N#Cc1c(-n2c3ccccc3c3ccccc32)cc(N2c3ccccc3C(c3ccccc3)(c3ccccc3)c3ccccc32)cc1-n1c2ccccc2c2ccccc21
- emission maximum (in Cc1ccccc1): 471 nm

SMILES: Cc1cc(-n2c3ccccc3c3cc4c(cc32)C2c3ccccc3C4c3ccccc32)c(C)cc1-c1nc(-c2ccccc2)nc(-c2ccccc2)n1
- emission maximum (in Cc1ccccc1): 427 nm
- emission maximum (in O=P(c1ccccc1)(c1ccccc1)c1ccccc1Oc1ccccc1P(=O)(c1ccccc1)c1ccccc1): 442 nm

SMILES: CC(C)(C)c1ccc(-c2nnc(-c3c(-n4c5ccccc5c5ccccc54)c(-n4c5ccccc5c5ccccc54)c(-n4c5ccccc5c5ccccc54)c(-n4c5ccccc5c5ccccc54)c3-n3c4ccccc4c4ccccc43)o2)cc1
- emission maximum (in Cc1ccccc1): 482 nm

SMILES: F[B-]1(F)n2c(nc(Br)c2Br)-c2cccc[n+]21
- emission maximum (in C1CCCCC1): 463 nm
- emission maximum (in C1CCOC1): 484 nm
- emission maximum (in C1COCCO1): 493 nm
- emission maximum (in CC#N): 492 nm
- emission maximum (in CCCCCC): 464 nm
- emission maximum (in CO): 487 nm
- emission maximum (in ClC(Cl)Cl): 469 nm

SMILES: O=P1(c2ccccc2)c2cc(N3c4ccccc4Oc4ccccc43)ccc2-c2ccc(N3c4ccccc4Oc4ccccc43)cc21
- emission maximum (in Cc1ccccc1): 540 nm
- emission maximum (in c1ccc2c(c1)c1ccccc1n2-c1ccc(-c2ccc(-n3c4ccccc4c4ccccc43)cc2)cc1): 550 nm

SMILES: [C-]#[N+]c1ccc(-c2ccc(N)cc2)cc1
- emission maximum (in C1CCCCC1): 354 nm
- emission maximum (in C1CCOC1): 396 nm
- emission maximum (in C1COCCO1): 383 nm
- emission maximum (in CC#N): 410 nm
- emission maximum (in CC(C)=O): 407 nm
- emission maximum (in CCCCCC): 353 nm
- emission maximum (in CCOC(C)=O): 397 nm
- emission maximum (in CN(C)C=O): 423 nm
- emission maximum (in CO): 419 nm
- emission maximum (in CS(C)=O): 424 nm
- emission maximum (in Cc1ccccc1): 371 nm
- emission maximum (in ClC(Cl)Cl): 398 nm
- emission maximum (in ClCCl): 390 nm
- emission maximum (in O): 457 nm
- emission maximum (in c1ccncc1): 415 nm

Second part, the compound after the results:

- emission maximum (in CCO): 674 nm
- emission maximum (in ClC(Cl)Cl): 664 nm
- emission maximum (in O): 684 nm
SMILES: CC[N+](CC)=c1ccc2c(-c3ccccc3C(=O)O)c3c(=O)oc4c5c6c(cc4c3oc-2c1)CCCN6CCC5

- emission maximum (in O): 534 nm
SMILES: CC(=O)OCOC(=O)CN(CC(=O)OCOC(C)=O)c1ccccc1OCCOc1cc(NC(=O)c2ccc3c(c2)C(=O)OC32c3cc(Cl)c(OC(C)=O)cc3Oc3cc(OC(C)=O)c(Cl)cc32)ccc1N(CC(=O)OCOC(C)=O)CC(=O)OCOC(C)=O

- emission maximum (in C1CCCCC1): 412 nm
- emission maximum (in C1CCOC1): 409 nm
- emission maximum (in CC#N): 407 nm
- emission maximum (in CCOC(C)=O): 410 nm
- emission maximum (in CS(C)=O): 405 nm
- emission maximum (in ClC(Cl)Cl): 411 nm
SMILES: N#Cc1cc2ccccc2oc1=O

- emission maximum (in ClCCl): 430 nm
SMILES: CCOC(=O)c1c(-c2cc3cc4c(cc3oc2=O)OC(C)(C)CC4)nn(-c2ccccc2)c1C(=O)OCC

- emission maximum (in CC#N): 466 nm
SMILES: COc1ccc(C2=[O+][B-](F)(F)OC(c3ccc4c(c3)Cc3ccccc3-4)=C2)cc1

- emission maximum (in C1CCOC1): 384 nm
SMILES: CC(C)(C)c1ccc2c(c1)c1cc(C(C)(C)C)cc3c1n2B1c2c-3cccc2-c2cc(C(C)(C)C)cc3c4cc(C(C)(C)C)ccc4n1c23

- emission maximum (in CCO): 622 nm
- emission maximum (in ClCCl): 617 nm
- emission maximum (in O): 634 nm
SMILES: CC[N+](CC)=c1ccc2c(-c3ccccc3C(=O)O)c3oc4cc(N)ccc4c3oc-2c1

- emission maximum (in CO): 395 nm
SMILES: COc1ccc(-c2nc(-c3ccccc3)c(-c3ccccc3)[nH]2)cc1

- emission maximum (in ClCCl): 456 nm
SMILES: CCOC(=O)C1=C(C(=O)OCC)C2(c3cc(Cl)ccc3-c3ccc(Cl)cc32)C2(/C=C/c3ccccc3)c3cc(OC)c(OC)cc3CCN12 (stereo not drawn)

- emission maximum (in CN(C)C=O): 449 nm
- emission maximum (in O): 449 nm
SMILES: CC[N+]1(CC)CN2C(C)=CC(C)=C(C(=O)O)C2=N1

- emission maximum (in ClCCl): 660 nm
SMILES: CC(C)[Si](C#Cc1c2cc3ccccc3cc2c(C#Cc2ccc(F)cc2)c2cc3ccccc3cc12)(C(C)C)C(C)C

- emission maximum (in CCOC(C)=O): 406 nm
SMILES: C[Si](C)(C)c1cc2c(cc3ccc4cccc5ccc2c3c45)[nH]1

- emission maximum (in ClCCl): 381 nm
SMILES: c1ccc(N(c2ccccc2)c2ccc(-n3ccc4cc(-c5cccc6c5-c5ccccc5C6(c5ccccc5)c5ccccc5)ccc43)cc2)cc1

- emission maximum (in CC#N): 443 nm
- emission maximum (in CO): 445 nm
- emission maximum (in CS(C)=O): 455 nm
- emission maximum (in ClC(Cl)Cl): 445 nm
SMILES: O=C1c2ccccc2-c2cc3ccccc3c(=O)n21

- emission maximum (in CC#N): 732 nm
- emission maximum (in ClCCl): 740 nm
SMILES: F[B-]1(F)n2c(-c3cccs3)cc(-c3ccccc3)c2N=C2C(c3ccccc3)=CC(c3cccs3)=[N+]21

- emission maximum (in ClC(Cl)Cl): 419 nm
SMILES: CN(C)c1ccc(-c2ccc(-c3cc(-c4ccccc4)c(-c4ccccc4)c(-c4ccccc4)c3-c3ccccc3)s2)cc1
